# In US9580449B2, “Compositions and methods for the production of pyrimidine and pyridine compounds with BTK inhibitory activity” (Merck Patent GmbH, priority 2011, dated 2017):
# Target: full-length human BTK (Homo sapiens (Human), UniProt Q06187)
# Assay: BTK IC50 enzyme assay (microfluidic off-chip mobility shift kinase assay)
# Format: biochemical
# Settings: incubated for 90 min. at 27 C; read-out: Time Dependent BTK Enzyme Assay IC50
# How it was run: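 Read-out separates phosphorylated peptide product from substrate by charge/mass in a mobility shift format with full-length human BTK.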
# Chain of full-length human BTK (Q06187 whole entry): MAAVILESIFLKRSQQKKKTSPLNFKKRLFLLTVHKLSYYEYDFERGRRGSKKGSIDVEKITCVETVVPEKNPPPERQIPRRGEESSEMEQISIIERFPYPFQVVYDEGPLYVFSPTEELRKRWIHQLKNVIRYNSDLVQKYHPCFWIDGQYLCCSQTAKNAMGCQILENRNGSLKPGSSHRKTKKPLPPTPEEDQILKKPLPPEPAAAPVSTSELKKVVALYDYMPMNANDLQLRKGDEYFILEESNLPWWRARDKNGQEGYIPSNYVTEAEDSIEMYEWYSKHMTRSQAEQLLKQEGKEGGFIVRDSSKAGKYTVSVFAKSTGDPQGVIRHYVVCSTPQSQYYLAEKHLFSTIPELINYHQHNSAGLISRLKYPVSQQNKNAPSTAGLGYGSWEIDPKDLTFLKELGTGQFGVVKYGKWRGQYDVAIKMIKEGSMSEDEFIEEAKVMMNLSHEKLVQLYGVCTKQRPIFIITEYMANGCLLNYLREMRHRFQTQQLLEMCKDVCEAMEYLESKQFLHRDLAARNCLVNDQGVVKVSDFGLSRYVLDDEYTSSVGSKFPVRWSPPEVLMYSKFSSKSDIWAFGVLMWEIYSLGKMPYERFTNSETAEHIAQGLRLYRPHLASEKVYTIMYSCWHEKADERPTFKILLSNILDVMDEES
row,IC50 [nM],SMILES
1,< 1000,"C=CC(=O)N1CCC(CNc2ncnc(N)c2-c2ccc(Oc3cccnc3)cc2)CC1 [A96, 1-(4-(((6-amino-5-(4-(pyridin-3-yloxy)phenyl)pyrimidin-4-yl)amino)methyl)piperidin-1-yl)prop-2-en-1-one]"
2,< 100,"C=CC(=O)Nc1cccc(Oc2ccnc(N)c2-c2ccc(Oc3ccccc3)cc2)c1 [A244, N-(3-((2-amino-3-(4-phenoxyphenyl)pyridin-4-yl)oxy)phenyl)acrylamide]"
3,< 100,"Nc1ncnc(Oc2cccc(NC(=O)CCl)c2)c1-c1ccc(Oc2ccccc2)cc1 [A342, N-{3-[6-Amino-5-(4-phenoxy-phenyl)-pyrimidin-4-yloxy]-phenyl}-2-chloroacetamide]"
4,< 1000,"C=CC(=O)N1CCC(CNc2ccnc(N)c2-c2ccc(Oc3ccccc3)cc2)CC1 [A76, 1-(4-(((2-amino-3-(4-phenoxyphenyl)pyridin-4-yl)amino)methyl)piperidin-1-yl)prop-2-en-1-one]"
5,< 100,"C=CC(=O)Nc1cccc(Oc2ncnc(N)c2-c2ccc(Oc3ccccn3)cc2)c1 [A162, N-(3-((6-amino-5-(4-(pyridin-2-yloxy)phenyl)pyrimidin-4-yl)oxy)phenyl)acrylamide]"
6,< 100,"C=CC(=O)Nc1cccc(Oc2ncnc(N)c2-c2cnn(Cc3ccc(F)cc3)c2)c1 [A187, N-(3-((6-amino-5-(1-(4-fluorobenzyl)-1H-pyrazol-4-yl)pyrimidin-4-yl)oxy)phenyl)acrylamide]"
8,< 100,"C=CC(=O)NC1CC(CNc2ncnc(N)c2-c2ccc(Oc3ccccc3)cc2)C1 (stereo not drawn) [A182, N-(3-(((6-amino-5-(4-phenoxyphenyl)pyrimidin-4-yl)amino)methyl)cyclobutyl)acrylamide]"
9,> 1000,"C=CC(=O)N1CCC(CN(C)c2nc(C)nc(N)c2-c2ccc(Oc3ccccc3)cc2)CC1 [A44, 1-(4-(((6-amino-2-methyl-5-(4-phenoxyphenyl)pyrimidin-4-yl)(methyl)amino)methyl)piperidin-1-yl)prop-2-en-1-one]"
10,< 100,"C=CC(=O)N1CCC=C(c2c(N)ncnc2Oc2ccc(Oc3ccccc3)cc2)C1 [A279, 1-(3-(4-amino-6-(4-phenoxyphenoxy)pyrimidin-5-yl)-5,6-dihydropyridin-1(2H)-yl)prop-2-en-1-one]"
11,< 100,"C=CC(=O)Nc1cccc(-c2c(Oc3ccc(Oc4ccccc4)cc3)ccnc2C(N)=O)c1 [A272, 3-(3-acrylamidophenyl)-4-(4-phenoxyphenoxy)picolinamide]"
12,> 1000,"N#CC1(C(=O)Nc2cccc(Oc3ncnc(N)c3-c3ccc(Oc4ccccc4)cc3)c2)CC1 [A329, N-(3-((6-amino-5-(4-phenoxyphenyl)pyrimidin-4-yl)oxy)phenyl)-1-cyanocyclopropanecarboxamide]"
13,> 1000,"C=CC(=O)N1CCC2(CCC2Nc2ncnc(N)c2-c2ccc(Oc3ccccc3)cc2)CC1 (stereo not drawn) [A123, 1-(1-((6-amino-5-(4-phenoxyphenyl)pyrimidin-4-yl)amino)-7-azaspiro[3.5]nonan-7-yl)prop-2-en-1-one]"
14,> 1000,"C=CC(=O)N1CCC(CNc2ncnc(N)c2-c2ccc(C(=O)Nc3ccccc3)cc2)C1 (stereo not drawn) [A155, 4-(4-(((1-acryloylpyrrolidin-3-yl)methyl)amino)-6-aminopyrimidin-5-yl)-N-phenylbenzamide]"
15,< 1000,"C=CC(=O)N1CCC(CNc2ncnc(N)c2-c2ccc(OCc3ccccc3)cc2)C1 (stereo not drawn) [A156, 1-(3-(((6-amino-5-(4-(benzyloxy)phenyl)pyrimidin-4-yl)amino)methyl)pyrrolidin-1-yl)prop-2-en-1-one]"
16,< 100,"C=CC(=O)N1CCCC(Nc2ncnc(N)c2-c2ccc(OCc3ccccc3)cc2)C1 (stereo not drawn) [A269, 1-(3-((6-amino-5-(4-(benzyloxy)phenyl)pyrimidin-4-yl)amino)piperidin-1-yl)prop-2-en-1-one]"
17,> 1000,"COCCN(C)C/C=C/C(=O)N1CCC(CNc2ncnc(N)c2-c2ccc(Oc3ccccc3)cc2)CC1 [A11, (E)-1-(4-(((6-amino-5-(4-phenoxyphenyl)pyrimidin-4-yl)amino)methyl)piperidin-1-yl)-4-((2-methoxyethyl)(methyl)amino)but-2-en-1-one]"

row,IC50 [nM],SMILES
1,< 1000,"C=CC(=O)Nc1cccc(-c2cncnc2Nc2ccc(Oc3ccccc3)cc2)c1 [A283, N-(3-(4-((4-phenoxyphenyl)amino)pyrimidin-5-yl)phenyl)acrylamide]"
2,< 100,"C=CC(=O)N1CC[C@@H](CNc2ncnc(N)c2-c2cnn(Cc3ccccc3)c2)[C@H](O)C1 [A109, 1-((3S,4S)-4-(((6-amino-5-(1-benzyl-1H-pyrazol-4-yl)pyrimidin-4-yl)amino)methyl)-3-hydroxypiperidin-1-yl)prop-2-en-1-one]"
3,< 100,"CC#CC(=O)[C@H]1CCC[C@H](Nc2ncnc(N)c2-c2ccc(Oc3ccccc3)cc2)C1 [A145, 1-((1S,3S)-3-(6-Amino-5-(4-phenoxyphenyl)-pyrimidin-4-ylamino)-cyclohexyl)-but-2-yn-1-one]"
4,< 100,"C#CC(=O)N1CC2(CC(Oc3ncnc(N)c3-c3cnn(Cc4ccccc4)c3)C2)C1 [A112, 1-(6-((6-amino-5-(1-benzyl-1H-pyrazol-4-yl)pyrimidin-4-yl)oxy)-2-azaspiro[3.3]heptan-2-yl)prop-2-yn-1-one]"
5,< 100,"C=CC(=O)Nc1cccc(Oc2ncnc(N)c2-c2ccc(OCc3ccc(F)cc3)cc2)c1 [A344, N-(3-{6-Amino-5-[4-(4-fluoro-benzyloxy)-phenyl]-pyrimidin-4-yloxy}-phenyl)-acrylamide]"
6,< 100,"C=CC(=O)Nc1cncc(Oc2ncnc(N)c2-c2ccc(Oc3ccccc3)cc2)c1 [A60, N-(5-((6-amino-5-(4-phenoxyphenyl)pyrimidin-4-yl)oxy)pyridin-3-yl)acrylamide]"
7,< 100,"CC#CC(=O)N1CC2(CC(Nc3ncnc(N)c3-c3ccc(Oc4ccccc4)cc3)C2)C1 [A108, 1-(6-((6-amino-5-(4-phenoxyphenyl)pyrimidin-4-yl)amino)-2-azaspiro[3.3]heptan-2-yl)but-2-yn-1-one]"
8,< 1000,"C=CC(=O)N1CC[C@@H](O)[C@H](Nc2ncnc(N)c2-c2ccc(Oc3ccccc3)cc2)C1 (racemic) [A210, 1-((3R,4R)-3-((6-amino-5-(4-phenoxyphenyl)pyrimidin-4-yl)amino)-4-hydroxypiperidin-1-yl)prop-2-en-1-one]"
9,< 100,"C=CC(=O)Nc1cccc(Oc2ncnc(N)c2-c2ccc(OCc3ccccc3)nc2)c1 [A259, N-(3-((6-amino-5-(6-(benzyloxy)pyridin-3-yl)pyrimidin-4-yl)oxy)phenyl)acrylamide]"
10,> 1000,"CCC(=O)Nc1cccc(Oc2ncnc(N)c2-c2ccc(Oc3ccccc3)cc2)c1 [A326, N-(3-((6-amino-5-(4-phenoxyphenyl)pyrimidin-4-yl)oxy)phenyl)propionamide]"
11,< 1000,"CN(C)C/C=C/C(=O)N[C@H]1C[C@H](Nc2ncnc(N)c2-c2ccc(Oc3ccccc3)cc2)C1 [A228, (E)-N-(1,3-trans-3-((6-amino-5-(4-phenoxyphenyl)pyrimidin-4-yl)amino)cyclobutyl)-4-(dimethylamino)but-2-enamide]"
12,< 100,"Nc1ncnc(N[C@@H]2CCN(S(=O)(=O)c3c(F)c(F)c(F)c(F)c3F)C2)c1-c1ccc(Oc2ccccc2)cc1 [A178, (R)-N4-(1-((perfluorophenyl)sulfonyl)pyrrolidin-3-yl)-5-(4-phenoxyphenyl)pyrimidine-4,6-diamine]"
13,< 1000,"C=CC(=O)N1CC2(CC(Nc3ncnc(N)c3-c3cnn(Cc4ccccc4)c3)C2)C1 [A107, 1-(6-((6-amino-5-(1-benzyl-1H-pyrazol-4-yl)pyrimidin-4-yl)amino)-2-azaspiro[3.3]heptan-2-yl)prop-2-en-1-one]"
14,> 1000,"C=CC(=O)N1CCC(CNc2ncnc(N)c2-c2ccc(C(=O)Nc3ccccc3)cc2)CC1 [A157, 4-(4-(((1-acryloylpiperidin-4-yl)methyl)amino)-6-aminopyrimidin-5-yl)-N-phenylbenzamide]"
15,> 1000,"C=CC(=O)Nc1cccc(-c2c(N)ncnc2N[C@H](C)c2ccccc2)c1 [A311, (R)-N-(3-(4-amino-6-((1-phenylethyl)amino)pyrimidin-5-yl)phenyl)acrylamide]"
16,< 1000,"C=CC(=O)N1CCCC(CNc2ncnc(N)c2-c2ccc(Oc3ccccc3)cc2)C1 (stereo not drawn) [A286, 1-(3-(((6-amino-5-(4-phenoxyphenyl)pyrimidin-4-yl)amino)methyl)piperidin-1-yl)prop-2-en-1-one]"
17,> 1000,"CC1=CC(C)=[N+]2C1=Cc1ccc(CCC(=O)N3CCN(C/C=C/C(=O)Nc4cccc(Oc5ncnc(N)c5-c5ccc(Oc6ccccc6)cc5)c4)CC3)n1[B-]2(F)F [A24, (E)-7-(3-(4-(4-((3-((6-amino-5-(4-phenoxyphenyl)pyrimidin-4-yl)oxy)phenyl)amino)-4-oxobut-2-en-1-yl)piperazin-1-yl)-3-oxopropyl)-5,5-difluoro-1,3-dimethyl-5H-dipyrrolo[1,2-c:2′,1′-f][1,3,2]diazaborinin-4-ium-5-uide]"

row,SMILES,IC50 [nM]
1,"CN(C)C/C=C/C(=O)N1C2CCC1CC(CNc1ncnc(N)c1-c1ccc(Oc3ccccc3)cc1)C2 (stereo not drawn) [A71, (E)-1-(3-(((6-amino-5-(4-phenoxyphenyl)pyrimidin-4-yl)amino)methyl)-8-azabicyclo[3.2.1]octan-8-yl)-4-(dimethylamino)but-2-en-1-one]",< 1000
2,"C=CC(=O)N1C2CCC1CC(CNc1ncnc(N)c1-c1cnn(Cc3ccccc3)c1)C2 (stereo not drawn) [A209, 1-(3-(((6-amino-5-(1-benzyl-1H-pyrazol-4-yl)pyrimidin-4-yl)amino)methyl)-8-azabicyclo[3.2.1]octan-8-yl)prop-2-en-1-one]",< 1000
